{"source": "patent US7795226B2", "about": "“Control of radiation injury” (Biotempt B.V., priority 2006, dated 2010)", "key": {"[1]": {"tested_on": "renal ischemia reperfusion in mice", "experiment": "mouse renal ischemia reperfusion test", "format": "in vivo", "design": "BUN after 25 minutes renal ischemia, mean / Urea levels in dose-response experiment: unit not given here", "conditions": "for BUN concentration versus the PBS control group (in words) / mortality versus the PBS control group (in words) / BUN after 25 minutes renal ischemia, mean: 5 mg/kg i.v.; for mortality at 72 hours post-reperfusion: 5 mg/kg i.v. before and after 25 minutes clamping, dead/total", "description": "Six oligopeptides (i.e., A: LAGV (SEQ ID NO:121); B: AQGV (SEQ ID NO:120); C: LAG; D: AQG; E: MTR; and F: MTRV (SEO ID NO:119)) were tested and compared with PBS (control) in a double blind animal study for each peptide's relative ability to aid recovery in a mouse renal ischemia reperfusion test. In this test, the mice were anesthetized, and one kidney from each mouse was removed. The other kidney was tied off for 25 minutes, and the serum urea levels were allowed to increase. Both before and after tying off, each of the separate peptides was administered to thirty (30) different mice (5 mg oligopeptide / kg body mass intravenously), after which, the mortality of the mice was determined for each oligopeptide as well as was the BUN concentration at two hours, 24 hours and 72 hours. The results are shown in Table 3 below (excluding the results of peptide A (LAGV (SEQ ID NO:121)) obtained in Example 3).\nUnder inhalation anesthesia, the left kidney with its artery and vein was isolated and occluded for 25 minutes using a microvascular clamp. During surgery, animals were placed on a heating pad to maintain body temperature at 37° C. Five minutes before placing the clamp, and five minutes before releasing the clamp, 5 mg/kg of peptide dissolved in 0.1 mL of sterile saline, was administered intravenously. After reperfusion of the left kidney, the right kidney was removed. Kidney function was assessed by measuring blood urea nitrogen before clamping, and at 2, 24, and 72 hours after reperfusion.\nPeptides were tested at 0.3, 1, 3, 10 and 30 mg/kg dosages given as described in Example 3. P values (calculated by Mann Whitney U-test (SPSS for Windows)) of serum urea levels of PBS compared to peptide D groups at 72 hours post-clamping were at 0.3 mg/kg 0.001, at 1 mg/kg 0.009, at 3 mg/kg 0.02, at 10 mg/kg 0.000, and at 30 mg/kg 0.23; for peptide B (SEQ ID NO:120) groups, these P-values were 0.88, 0.054, 0.000, 0.001 and 0.003."}, "[2]": {"tested_on": "high dose LPS (E. coli 026:B6)-induced septic shock in BALB/c mice", "experiment": "high dose LPS-induced septic shock, peptide administered twice", "format": "in vivo", "conditions": "peptide twice (t = 2 and 24 hours) 5 mg/kg", "description": "Mice used in sepsis or septic shock experiments: Female BALB/c mice of eight to twelve weeks of age were used for all experiments. The animals were bred in our facility under specific pathogen-free conditions according to the protocols described in the […] of European Laboratory Animal Science Associations (FELASA) Working group on Animal Health (Laboratory Animals 28:1-24, 1994).\nInjection protocols: For the endotoxin model, BALB/c mice were injected i.p. with 150-300 μg LPS (E. coli 026:B6; Difco Lab., Detroit, Mich., USA). Control groups were treated with PBS i.p. only. To test the effect of peptides, they were dissolved in PBS and injected i.p. at predetermined points in time after LPS treatment.\nMice were scored for sickness severity using the following measurement scheme: • 0 No abnormalities. • 1 Percolated fur, but no detectable behavior differences compared to normal mice. • 2 Percolated fur, huddle reflex, responds to stimuli (such as tap on cage), just as active during handling as healthy mouse. • 3 Slower response to tap on cage, passive or docile when handled, but still curious when alone in a new setting. • 4 Lack of curiosity, little or no response to stimuli, quite immobile. • 5 Labored breathing, inability or slow to self-right after being rolled onto back (moribund, sacrificed). • D Dead.\nA second set of septic shock experiments were set up to determine which of the peptides LQG, LQGV (SEQ ID NO:117), VLPALP (SEQ ID NO:140), VLPALPQ (SEQ ID NO:143), MTR, MTRV (SEQ ID NO:119), VVC or AQG, AQGV (SEQ ID NO:120), LAG and LAGV (SEQ ID NO:121) were capable of inhibiting high dose LPS-induced septic shock in mice by treating mice with a double dose of peptide at two and 24 hours after LPS treatment. At each treatment, peptides were used at 5 mg/kg bodyweight. BALB/c mice were injected i.p. with high doses LPS (E. coli 026:B6; Difco Lab., Detroit, Mich. USA), predetermined to be leading to 80 to 100% mortality in 24 to 72 hours."}, "[3]": {"tested_on": "cell-cycle marker pCDG and auxin-responsive marker DR5::GUS", "experiment": "Arabidopsis thaliana seedling cell-cycle analysis (GUS markers)", "conditions": "Results from Examples 9 and 10", "description": "To further study anti-cell-cycle activity of various oligopeptides, a proliferation experiment in Arabidopsis Thaliana seedlings was performed. The aim was to test a group of 140 oligopeptides of varying length for their effect on plant marker gene expression during rapid growth when avid cell division occurs.\nThe peptides were re-suspended in 1× Phosphate Buffer Saline (PBS) pH 8 to a final concentration of 5 mg/ml. The obtained solutions were then divided through 96-well round bottom plates (Corning Incorporated) at 40 microliters per well. Plates were stored before use at […] for four days. Seeds of Arabidopsis thaliana ecotype Ws-0 were surface sterilized in 2% commercial bleach (Gloria) for ten minutes and washed five times with sterile MQ water. The seeds were then re-suspended with 0.1% agar and plated on MS20 plates supplemented with 80 mg/l Kanamycin.\nThe plates were placed at […] for two nights and then transferred to a climate room at […] and a 16/8 hours photoperiod. After four days of growth, the seedlings were transferred to 96-well plates containing the peptide solutions (four seedlings per well) and incubated for four and eight hours.\nFor this experiment, Arabidopsis homozygous seedlings harboring two reporter genes fused to GUS were used. […] After incubation with the compounds, the seedlings were stained for GUS. The staining reaction was performed in 100 mM sodium phosphate buffer (pH 7.0) that contained 10 mM EDTA, 10% DMSO, 0.1% Triton X-100, 2 mM X-Gluc, 0.5 mM K3Fe(CN)6 and 0.5 mM K4Fe(CN)6 at […] for 16 hours. […] Seedlings were fixed and cleared in chloral hydrate solution for detailed microscopic observation and photography under a microscope equipped with DIC optics.\nPeptides were tested for an effect on marker gene expression on rapidly growing Arabidopsis young seedlings. This was monitored by changes on GUS distribution in different organs: root, root-hypocotyl transition zone and cotyledons."}}, "data": [{"substance": "AQG", "values": [{"measurement": "Mortality in dose-response experiment", "setting": "[1]; 0.3 mg/kg, 24 hours", "result": "0-10"}, {"measurement": "Urea levels in dose-response experiment", "setting": "[1]; 0.3 mg/kg, 24 hours", "result": 38.4}, {"measurement": "Mortality in dose-response experiment", "setting": "[1]; 0.3 mg/kg, 72 hours", "result": "2-8"}, {"measurement": "Urea levels in dose-response experiment", "setting": "[1]; 0.3 mg/kg, 72 hours", "result": 30.4}, {"measurement": "Mortality in dose-response experiment", "setting": "[1]; 1.0 mg/kg, 24 hours", "result": "0-10"}, {"measurement": "Urea levels in dose-response experiment", "setting": "[1]; 1.0 mg/kg, 24 hours", "result": 48.4}, {"measurement": "Mortality in dose-response experiment", "setting": "[1]; 1.0 mg/kg, 72 hours", "result": "1-8"}, {"measurement": "Urea levels in dose-response experiment", "setting": "[1]; 1.0 mg/kg, 72 hours", "result": 38.4}, {"measurement": "Mortality in dose-response experiment", "setting": "[1]; 3.0 mg/kg, 24 hours", "result": "0-10"}, {"measurement": "Urea levels in dose-response experiment", "setting": "[1]; 3.0 mg/kg, 24 hours", "result": 39.3}, {"measurement": "Mortality in dose-response experiment", "setting": "[1]; 3.0 mg/kg, 72 hours", "result": "0-10"}, {"measurement": "Urea levels in dose-response experiment", "setting": "[1]; 3.0 mg/kg, 72 hours", "result": 40.3}, {"measurement": "BUN concentration versus the PBS control group (in words)", "setting": "[1]", "result": "no reducing effect on BUN concentration"}, {"measurement": "mortality versus the PBS control group (in words)", "setting": "[1]", "result": "significant reduction of mortality"}, {"measurement": "mortality at 72 hours post-reperfusion", "setting": "[1]", "result": "4/10"}, {"measurement": "Mortality in dose-response experiment", "setting": "[1]; 10.0 mg/kg, 24 hours", "result": "0-8"}, {"measurement": "Urea levels in dose-response experiment", "setting": "[1]; 10.0 mg/kg, 24 hours", "result": 46.8}, {"measurement": "Mortality in dose-response experiment", "setting": "[1]; 10.0 mg/kg, 72 hours", "result": "1-10"}, {"measurement": "Urea levels in dose-response experiment", "setting": "[1]; 10.0 mg/kg, 72 hours", "result": 25.8}, {"measurement": "Mortality in dose-response experiment", "setting": "[1]; 30.0 mg/kg, 24 hours", "result": "0-8"}, {"measurement": "Urea levels in dose-response experiment", "setting": "[1]; 30.0 mg/kg, 24 hours", "result": 52.8}, {"measurement": "Mortality in dose-response experiment", "setting": "[1]; 30.0 mg/kg, 72 hours", "result": "1-8"}, {"measurement": "Urea levels in dose-response experiment", "setting": "[1]; 30.0 mg/kg, 72 hours", "result": 58.9}, {"measurement": "BUN after 25 minutes renal ischemia, mean", "setting": "[1]; 2 hours after reperfusion", "result": 17.7}, {"measurement": "BUN after 25 minutes renal ischemia, mean", "setting": "[1]; 24 hours after reperfusion", "result": 66.76}, {"measurement": "BUN after 25 minutes renal ischemia, mean", "setting": "[1]; 72 hours after reperfusion", "result": 91.18}, {"measurement": "BUN levels in dose-response experiment (in words)", "setting": "[1]; lower dosages tested (0.3-30 mg/kg range), compared with peptide B", "result": "did reduce BUN levels surprisingly well at the lower dosages tested"}, {"measurement": "BUN after 25 minutes renal ischemia, mean", "setting": "[1]; t = 0 hr (before clamping)", "result": 9.304}, {"measurement": "mice with sickness score 1, effect at t = 24 hours", "setting": "[2]; LPS dose 10.5", "result": 2}, {"measurement": "mice with sickness score 1, effect at t = 48 hours", "setting": "[2]; LPS dose 10.5", "result": 2}, {"measurement": "mice with sickness score 2, effect at t = 24 hours", "setting": "[2]; LPS dose 10.5", "result": 1}, {"measurement": "mice with sickness score 2, effect at t = 48 hours", "setting": "[2]; LPS dose 10.5", "result": 3}, {"measurement": "mice with sickness score 3, effect at t = 24 hours", "setting": "[2]; LPS dose 10.5", "result": 2}, {"measurement": "mice with sickness score 1, effect at t = 24 hours", "setting": "[2]; LPS dose 11", "result": 4}, {"measurement": "mice with sickness score 2, effect at t = 48 hours", "setting": "[2]; LPS dose 11", "result": 6}, {"measurement": "mice with sickness score 3, effect at t = 24 hours", "setting": "[2]; LPS dose 11", "result": 2}, {"measurement": "identified as useful peptide for treatment of radiation injury from cell-cycle studies in plants and in vitro proliferation studies", "setting": "[3]", "result": "useful"}]}, {"substance": "LAG", "values": [{"measurement": "BUN concentration versus the PBS control group (in words)", "setting": "[1]", "result": "no reducing effect on BUN concentration"}, {"measurement": "mortality versus the PBS control group (in words)", "setting": "[1]", "result": "significant reduction of mortality"}, {"measurement": "mortality at 72 hours post-reperfusion", "setting": "[1]", "result": "4/10"}, {"measurement": "BUN after 25 minutes renal ischemia, mean", "setting": "[1]; 2 hours after reperfusion", "result": 18.13}, {"measurement": "BUN after 25 minutes renal ischemia, mean", "setting": "[1]; 24 hours after reperfusion", "result": 59.24}, {"measurement": "BUN after 25 minutes renal ischemia, mean", "setting": "[1]; 72 hours after reperfusion", "result": 74.4}, {"measurement": "BUN after 25 minutes renal ischemia, mean", "setting": "[1]; t = 0 hr (before clamping)", "result": 10.15}, {"measurement": "mice scored D (dead), effect at t = 48 hours", "setting": "[2]; LPS dose 10.5", "result": 6}, {"measurement": "mice with sickness score 5, effect at t = 24 hours", "setting": "[2]; LPS dose 10.5", "result": 5}, {"measurement": "mice scored D (dead), effect at t = 48 hours", "setting": "[2]; LPS dose 11", "result": 6}, {"measurement": "mice with sickness score 5, effect at t = 24 hours", "setting": "[2]; LPS dose 11", "result": 6}, {"measurement": "identified as useful peptide for treatment of radiation injury from cell-cycle studies in plants and in vitro proliferation studies", "setting": "[3]", "result": "useful"}]}]}
